In brackets after ≈: the same amount, converted by molar mass. Read-outs that look alike come from different tables or passages of the source.
Legend:
[1] = Repeated oral dosing (5 mg/kg every 12 h, six doses) plasma trough concentrations in koalas; format: in vivo; conditions: koala (Phascolarctos cinereus)
Method: At least 2 months after the initial single oral dose administration study, firocoxib was administered twice daily at a dose of 5 mg/kg orally (as described in the single dose administration) for three consecutive days with the last dose administered 60 h after first administration, with a total of six doses administered. Blood (2 mL) was collected once daily into lithium heparin tubes at […] after first firocoxib dosage (prior to the morning dose). The cap, extension tube and catheter were flushed with saline before and after each collection. The first 0.5 mL of blood was discarded to avoid dilution of samples with saline.
With the repeated oral dosing, the accumulation factor equation [18] was used to ascertain if there was any firocoxib accumulation between trough concentrations at 48 h versus 72 h:
Accumulationfactor=(1−e^−nkT)/(1−e^−kT)
Where n = the number of doses k = ke = elimination constant
τ = number of hours between dosing

[2] = cited from earlier work
[3] = cited from earlier work; remark: listed apart in the source
[4] = set-up: method as in ref [4] of S9 Table; conditions: Rabbits (6); PO 3.74 -4.20 mg/kg; ref [4] of S9 Table; cited from earlier work
[5] = set-up: method as in ref [7] of S9 Table; conditions: Calves (10); PO 0.5 mg/kg; ref [7] of S9 Table; cited from earlier work
[6] = set-up: method as in ref [9] of S9 Table; conditions: Rhinoceros (5); PO 0.1 mg/kg; ref [9] of S9 Table; cited from earlier work
COX-1:COX-2 = conditions: cited from earlier work
COX-2 = conditions: cited from earlier work
osteoarthritis in horses = system: osteoarthritis in horses; set-up: method as in PMID 36684818; conditions: cited from earlier work
cats = system: cats; set-up: method as in PMID 16111170; conditions: cited from earlier work
[7] = system: equine ischaemic intestinal injury; set-up: method as in PMID 19645580; conditions: cited from earlier work
[8] = female, in vivo, Plasma firocoxib concentration (trough)
[9] = male, in vivo, Plasma firocoxib concentration (trough)
[10] = Dogs (40), PO 5 mg/kg, ref [1] of S9 Table
[11] = Horses (6), PO 0.1 mg/kg, ref [1] of S9 Table
[12] = Horses (12), IV 0.1 mg/kg, ref [3] of S9 Table
[13] = Horses (12), PO 0.1 mg/kg, ref [3] of S9 Table

## CC1(C)OC(=O)C(OCC2CC2)=C1c1ccc(S(C)(=O)=O)cc1 [firocoxib]
[1]; both sexes, plasma, arithmetic mean, six koalas, 24 h, 5 mg/kg oral every 12 h, read-out: Firocoxib plasma trough concentration
  concentration at 24 h: 54.7 ng/mL
[1]; both sexes, plasma, arithmetic mean, six koalas, 48 h, 5 mg/kg oral every 12 h, read-out: Firocoxib plasma trough concentration
  concentration at 48 h: 47.4 ng/mL
[1]; both sexes, plasma, arithmetic mean, six koalas, 72 h (12 h after the last dose), 5 mg/kg oral every 12 h, read-out: Firocoxib plasma trough concentration
  concentration at 72 h: 85.5 ng/mL
[1]; both sexes, plasma, harmonic mean, six koalas, 24 h, 5 mg/kg oral every 12 h, read-out: Firocoxib plasma trough concentration
  concentration at 24 h: 43.3 ng/mL
[1]; both sexes, plasma, harmonic mean, six koalas, 48 h, 5 mg/kg oral every 12 h, read-out: Firocoxib plasma trough concentration
  concentration at 48 h: 33.2 ng/mL
[1]; both sexes, plasma, harmonic mean, six koalas, 72 h (12 h after the last dose), 5 mg/kg oral every 12 h, read-out: Firocoxib plasma trough concentration
  concentration at 72 h: 68.8 ng/mL
[1]; both sexes, plasma, median, six koalas, 24 h, 5 mg/kg oral every 12 h, read-out: Firocoxib plasma trough concentration
  concentration at 24 h: 58.3 ng/mL
[1]; both sexes, plasma, median, six koalas, 48 h, 5 mg/kg oral every 12 h, read-out: Firocoxib plasma trough concentration
  concentration at 48 h: 52.9 ng/mL
[1]; both sexes, plasma, median, six koalas, 72 h (12 h after the last dose), 5 mg/kg oral every 12 h, read-out: Firocoxib plasma trough concentration
  concentration at 72 h: 82.1 ng/mL
[1]; [8]
  concentration at 24 h: 69.1 ng/mL
  concentration at 48 h: 36.8 ng/mL
  concentration at 72 h: 137 ng/mL
[1]; female, plasma, harmonic mean, females, 24 h, 5 mg/kg oral every 12 h, read-out: Firocoxib trough plasma concentration
  concentration at 24 h: 75.5 ng/mL
[1]; female, plasma, harmonic mean, females, 48 h, 5 mg/kg oral every 12 h, read-out: Firocoxib trough plasma concentration
  concentration at 48 h: 51.6 ng/mL
[1]; female, plasma, harmonic mean, females, 72 h, 5 mg/kg oral every 12 h, read-out: Firocoxib trough plasma concentration
  concentration at 72 h: 118 ng/mL
[1]; female, plasma, mean, females, 24 h, 5 mg/kg oral every 12 h, read-out: Firocoxib trough plasma concentration
  concentration at 24 h: 76.5 ng/mL
[1]; female, plasma, mean, females, 48 h, 5 mg/kg oral every 12 h, read-out: Firocoxib trough plasma concentration
  concentration at 48 h: 55.5 ng/mL
[1]; female, plasma, mean, females, 72 h, 5 mg/kg oral every 12 h, read-out: Firocoxib trough plasma concentration
  concentration at 72 h: 120 ng/mL
[1]; female, plasma, median (range), females, 24 h, 5 mg/kg oral every 12 h, read-out: Firocoxib trough plasma concentration
  concentration at 24 h: 71.3 ng/mL
[1]; female, plasma, median (range), females, 48 h, 5 mg/kg oral every 12 h, read-out: Firocoxib trough plasma concentration
  concentration at 48 h: 60.2 ng/mL
[1]; female, plasma, median (range), females, 72 h, 5 mg/kg oral every 12 h, read-out: Firocoxib trough plasma concentration
  concentration at 72 h: 120 ng/mL
[1]; [9]
  concentration at 24 h: 25.3 ng/mL
  concentration at 72 h: 61.8 ng/mL
[1]; male, plasma, arithmetic mean, males, 24 h, 5 mg/kg oral every 12 h, read-out: Firocoxib trough plasma concentration
  concentration at 24 h: 33 ng/mL
[1]; male, plasma, arithmetic mean, males, 48 h, 5 mg/kg oral every 12 h, read-out: Firocoxib trough plasma concentration
  concentration at 48 h: 39.2 ng/mL
[1]; male, plasma, arithmetic mean, males, 72 h, 5 mg/kg oral every 12 h, read-out: Firocoxib trough plasma concentration
  concentration at 72 h: 51.3 ng/mL
[1]; male, plasma, harmonic mean, males, 24 h, 5 mg/kg oral every 12 h, read-out: Firocoxib trough plasma concentration
  concentration at 24 h: 30.3 ng/mL
[1]; male, plasma, harmonic mean, males, 48 h, 5 mg/kg oral every 12 h, read-out: Firocoxib trough plasma concentration
  concentration at 48 h: 24.6 ng/mL
[1]; male, plasma, harmonic mean, males, 72 h, 5 mg/kg oral every 12 h, read-out: Firocoxib trough plasma concentration
  concentration at 72 h: 48.5 ng/mL
[1]; male, plasma, median (range), males, 24 h, 5 mg/kg oral every 12 h, read-out: Firocoxib trough plasma concentration
  concentration at 24 h: 26.1 ng/mL
[1]; male, plasma, median (range), males, 48 h, 5 mg/kg oral every 12 h, read-out: Firocoxib trough plasma concentration
  concentration at 48 h: 48.2 ng/mL
[1]; male, plasma, median (range), males, 72 h, 5 mg/kg oral every 12 h, read-out: Firocoxib trough plasma concentration
  concentration at 72 h: 56.2 ng/mL
[2]; Dogs (6), PO 5 mg/kg, ref [2] of S9 Table
  t1/2: 6.5 h
[2]; [10]
  Cmax: 520 ng/mL
  Tmax: 1.25 h
  t1/2: 5.9 h
[2]; dogs
  Tmax: 1.25 h
  plasma elimination half-life (mean): 5.90 h
[2]; dogs, oral 5 mg/kg
  mean Cmax: 520 ng/mL
[3]; [11]
  Cmax: 58.0 ng/mL
  Tmax: 3.2 h
  t1/2: 32.77 h
[3]; [12]
  Cmax: 210 ng/mL
  t1/2: 34 h
[3]; [13]
  Cmax: 75 ng/mL
  Tmax: 3.9 h
  t1/2: 30 h
[3]; horses dosed at 0.1 mg/kg
  Absolute oral bioavailability: 79%
[3]; horses
  Cl: 0.617 mL/min/kg
  Tmax (mean): 3.2 h
  Vd: 1.7 L/kg
  plasma elimination half-life: 32.8 h
[3]; horses, oral 0.1 mg/kg
  Cmax: 58 ng/mL
[4]
  Cmax: 160 ng/mL
  Tmax: 3.81 h
  t1/2: 9.12 h
[5]
  Cmax: 127.9 ng/mL
  t1/2: 18.8 h
[6]
  Cmax: 15.7 ng/mL
  t1/2: 4.96 h
COX-1:COX-2; dogs, whole blood
  COX-1:COX-2 inhibition ratio: 384–427
COX-1:COX-2; more potent than carprofen in COX-2 selectivity
  COX-2 selectivity relative to carprofen: 30 fold
COX-2; horse whole blood, in vitro
  IC80 (COX-2): 0.067 µg/mL (≈ 0.199 µM)
COX-2; horse, corrected from whole blood IC80
  plasma concentration required to inhibit 80% of in vitro COX-2 reactions: exceeding 103 ng/mL
COX-2; horses, whole blood
  COX-1:COX-2 inhibition ratio: 643
Osteoarthritis in horses
  efficacy for controlling pain and inflammation associated with osteoarthritis: good efficacy
cats
  antipyretic activity: antipyretic activity
[7]; equine ischaemic intestinal injury
  visceral analgesia: efficacious visceral analgesia
[7]; firocoxib compared with flunixin meglumine
  mucosal barrier function recovery: superior mucosal barrier function recovery

Reference: article PMC12483202, “Pharmacokinetic profile of oral firocoxib in the koala (Phascolarctos cinereus)” (PLOS One, 2025)
